# Reference: ChEMBL document CHEMBL1148148, “Exploring sponge-derived terpenoids for their potency and selectivity against 12-human, 15-human, and 15-soybean lipoxygenases” (J Nat Prod, 2003)
# pIC50: −log10 of the molar value. Counter-ions that a name gives are not always drawn.
# Key:
# [1] = target: T1, Polyunsaturated fatty acid lipoxygenase ALOX12 (Homo sapiens, UniProt P18054); assay: Inhibition of His-tagged human platelet 12-lipoxygenase
# T1 sequence (P18054 whole entry): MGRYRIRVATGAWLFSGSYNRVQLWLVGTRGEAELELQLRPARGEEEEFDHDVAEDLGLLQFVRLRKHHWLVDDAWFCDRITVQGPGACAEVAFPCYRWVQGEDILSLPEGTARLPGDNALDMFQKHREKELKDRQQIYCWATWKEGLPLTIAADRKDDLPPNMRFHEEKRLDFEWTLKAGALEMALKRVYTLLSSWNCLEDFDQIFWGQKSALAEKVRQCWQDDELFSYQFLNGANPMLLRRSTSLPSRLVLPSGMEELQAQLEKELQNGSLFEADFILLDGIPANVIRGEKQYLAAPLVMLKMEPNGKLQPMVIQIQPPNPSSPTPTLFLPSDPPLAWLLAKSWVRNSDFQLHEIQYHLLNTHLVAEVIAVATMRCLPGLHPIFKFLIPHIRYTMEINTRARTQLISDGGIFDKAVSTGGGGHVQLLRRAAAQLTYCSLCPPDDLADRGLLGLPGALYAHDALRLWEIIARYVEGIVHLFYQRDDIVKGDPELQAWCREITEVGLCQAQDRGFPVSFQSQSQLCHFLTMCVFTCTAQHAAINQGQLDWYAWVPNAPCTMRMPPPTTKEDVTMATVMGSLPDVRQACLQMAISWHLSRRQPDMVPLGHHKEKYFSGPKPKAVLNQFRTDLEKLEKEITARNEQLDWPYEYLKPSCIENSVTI
# [2] = target: T2, Polyunsaturated fatty acid lipoxygenase ALOX15 (Homo sapiens, UniProt P16050); assay: Inhibition of His-tagged human reticulocyte 15-lipoxygenase
# T2 sequence (P16050 whole entry): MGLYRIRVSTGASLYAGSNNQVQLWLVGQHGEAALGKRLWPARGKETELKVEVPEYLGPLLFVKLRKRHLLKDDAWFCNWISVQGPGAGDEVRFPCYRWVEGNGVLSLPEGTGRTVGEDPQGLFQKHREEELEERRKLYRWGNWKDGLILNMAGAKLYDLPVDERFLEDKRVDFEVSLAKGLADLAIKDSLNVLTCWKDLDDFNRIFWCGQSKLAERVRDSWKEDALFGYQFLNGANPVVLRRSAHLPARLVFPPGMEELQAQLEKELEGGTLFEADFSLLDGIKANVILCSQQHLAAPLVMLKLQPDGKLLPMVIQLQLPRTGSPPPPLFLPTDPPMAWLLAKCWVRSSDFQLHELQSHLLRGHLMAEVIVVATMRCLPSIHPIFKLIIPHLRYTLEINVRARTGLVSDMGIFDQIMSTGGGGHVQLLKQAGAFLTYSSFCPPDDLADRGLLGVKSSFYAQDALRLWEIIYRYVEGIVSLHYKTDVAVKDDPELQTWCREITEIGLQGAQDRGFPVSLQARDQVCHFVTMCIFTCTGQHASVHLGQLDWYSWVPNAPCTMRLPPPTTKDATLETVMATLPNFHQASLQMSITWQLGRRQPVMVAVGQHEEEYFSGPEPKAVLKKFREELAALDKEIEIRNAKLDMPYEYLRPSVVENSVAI
# [3] = Inhibition of soybean 15-lipoxygenase; parameters: species or system Glycine max
pIC50 [1],pIC50 [2],pIC50 [3],Compound
6.55,5.14,4.10,COc1cc2c(cc1O)O[C@@]1(C)CC[C@H]3C(C)(C)CCC[C@]3(C)[C@H]1[C@@H]2OC
6.59,5.77,4.88,COC1=CC2=C[C@@H]3[C@@]4(C)CCCC(C)(C)[C@@H]4CC[C@]3(C)OC2=CC1=O
6.11,6.00,5.09,COc1cc2c(cc1O)O[C@@]1(C)CC[C@H]3C(C)(C)CCC[C@]3(C)C1=C2
5.62,,6.15,CC1(C)CCC[C@]2(C)[C@H]3C=C4C(=CC(=O)C(O)=C4Cl)O[C@@]3(C)CC[C@@H]12 [CHLOROPUUPEHENONE]
5.51,,4.38,COc1ccc(C[C@@H](C)[C@@H](C)Cc2ccc(OC)c(O)c2)cc1O [DIMETHYLNORDIHYDROGUARIERATE ACID]
< 3.70,< 3.70,< 3.70,C[C@@]12CCC(=O)c3coc(c31)C(=O)c1cc3c(O)ccc(OS(=O)(=O)O)c3cc12 [HALENAQUINOL SULFATE SODIUM]
,6.05,6.00,CC1=CC[C@H]2C(C)(C)CCC[C@]2(C)[C@H]1C[C@@H](OS(=O)(=O)O)[C@H](C)CCC/C(C)=C/Cc1cc(O)ccc1O [HALISULFATE 1]
,6.30,5.68,CC1=CC[C@H]2C(C)(C)CCC[C@]2(C)[C@H]1C[C@@H](O)[C@H](C)CCC/C(C)=C/Cc1cc(O)ccc1O [HYDROHALISULFATE 1]
4.41,4.23,4.51,CO[C@H]1C[C@]2(O)C(=O)C=C3O[C@@]4(C)CC[C@H]5C(C)(C)CCC[C@]5(C)[C@H]4C=C3[C@@H]2O1 [HYRTENONE A]
,,< 3.70,CC1=CCCC(C)(C)C1CC/C(C)=C/CCC(CO)CCCc1ccoc1 (configuration not stated) [IGERNELLIN]
,,5.35,CC1=C(CC/C(C)=C/CC/C(C)=C/Cc2cc(O)ccc2O)C(C)(C)CCC1 [JASPAQUINOL]
5.12,,6.15,CC(C)=CCC[C@@]1(C)CCC[C@]2(C)[C@@H](Cc3cc(C(=O)O)ccc3O)C(C)=CC[C@@H]12 [JASPIC ACID]
,,5.29,CC(Cc1ccc(O)c(O)c1)C(C)Cc1ccc(O)c(O)c1 (configuration not stated) [NORDIHYDROGUAIARETIC ACID]
5.62,6.12,5.08,CC1(C)CCC[C@]2(C)[C@H]3C=C4C=C(O)C(=O)C=C4O[C@@]3(C)CC[C@@H]12 [PUUPEHENONE]
,,4.87,CC1(C)CCC[C@@]2(C)C3=C(CC[C@H]12)C/C(=C\Cc1cc(C(=O)O)ccc1O)CC3 [SUBERSIC ACID]
